The text below walks through data of article PMC9093745, “Carbohydrate Metabolism in Bacteria: Alternative Specificities in ADP-Glucose Pyrophosphorylases Open Novel Metabolic Scenarios and Biotechnological Tools” (Frontiers in Microbiology, 2022).

Common to all, as to format: biochemical
Experiment [1] deals with T1, R. albus ADP-Glc PPase GlgC/GlgD (Hominimerdicola alba, UniProt E9SED8).
T1 construct: recombinant in E. coli, IMAC purified; heterotetramer; with Glucose-1-phosphate adenylyltransferase, GlgD subunit
T1 sequence (E9SED8 1-400): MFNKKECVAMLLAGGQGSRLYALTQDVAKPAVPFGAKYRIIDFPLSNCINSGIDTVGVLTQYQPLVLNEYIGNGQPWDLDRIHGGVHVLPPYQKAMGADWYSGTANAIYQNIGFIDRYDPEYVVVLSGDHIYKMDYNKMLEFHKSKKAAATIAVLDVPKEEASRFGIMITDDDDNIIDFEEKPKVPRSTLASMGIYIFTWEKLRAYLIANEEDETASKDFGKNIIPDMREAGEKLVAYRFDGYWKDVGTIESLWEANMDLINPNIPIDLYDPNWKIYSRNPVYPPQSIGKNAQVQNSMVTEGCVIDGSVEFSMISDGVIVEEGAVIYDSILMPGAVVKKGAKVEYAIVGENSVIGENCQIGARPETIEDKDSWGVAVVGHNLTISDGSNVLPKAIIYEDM
T1 sequence (E9SED9 1-371 partner): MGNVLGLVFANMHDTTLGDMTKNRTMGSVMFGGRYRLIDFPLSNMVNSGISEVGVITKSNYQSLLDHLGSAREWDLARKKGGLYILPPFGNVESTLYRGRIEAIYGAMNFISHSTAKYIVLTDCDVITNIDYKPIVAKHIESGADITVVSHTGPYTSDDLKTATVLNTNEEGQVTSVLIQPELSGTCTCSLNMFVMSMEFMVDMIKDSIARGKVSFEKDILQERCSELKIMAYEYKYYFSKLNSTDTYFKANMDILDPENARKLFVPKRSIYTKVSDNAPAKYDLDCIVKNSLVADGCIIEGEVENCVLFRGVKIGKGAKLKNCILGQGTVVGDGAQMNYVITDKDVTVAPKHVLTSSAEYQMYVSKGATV
Briefly: activation of ADP-Glc synthesis, malachite green Pi release. To be noted: allosteric activator; Glc-1P and ATP as substrates, Mg2+, pH 8.0, 37°C.

Experiment [2] concerns the target T2, A. tumefaciens ADP-Glc PPase (Agrobacterium tumefaciens, UniProt P39669).
T2 construct: gene glgC; recombinant in E. coli; proteobacterial enzyme is a GlgC homotetramer
T2 sequence (P39669 1-420): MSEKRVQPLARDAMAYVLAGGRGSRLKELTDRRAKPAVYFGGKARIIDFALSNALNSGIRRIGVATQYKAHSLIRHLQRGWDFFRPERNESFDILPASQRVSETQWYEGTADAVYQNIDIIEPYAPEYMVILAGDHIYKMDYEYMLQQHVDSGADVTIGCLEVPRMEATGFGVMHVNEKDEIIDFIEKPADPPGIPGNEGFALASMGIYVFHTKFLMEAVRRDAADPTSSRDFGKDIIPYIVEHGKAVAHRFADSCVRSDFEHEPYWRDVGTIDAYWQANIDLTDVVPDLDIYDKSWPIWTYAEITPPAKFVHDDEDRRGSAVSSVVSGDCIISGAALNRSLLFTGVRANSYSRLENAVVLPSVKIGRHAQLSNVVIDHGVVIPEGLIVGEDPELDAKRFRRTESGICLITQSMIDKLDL
Briefly: effect on ADP-Glc synthesis, malachite green Pi release. Particulars: allosteric effector, lowers activity; Glc-1P and ATP as substrates, Mg2+, pH 8.0, 37°C.

Experiment [3] addresses T3, K. rhizophila ADP-Glc PPase (Kocuria rhizophila, UniProt B2GHR6).
T3 construct: gene glgC; recombinant in E. coli BL21 (DE3), His-tagged, IMAC purified; actinobacterial enzyme is a GlgC tetramer
T3 sequence (B2GHR6 1-414): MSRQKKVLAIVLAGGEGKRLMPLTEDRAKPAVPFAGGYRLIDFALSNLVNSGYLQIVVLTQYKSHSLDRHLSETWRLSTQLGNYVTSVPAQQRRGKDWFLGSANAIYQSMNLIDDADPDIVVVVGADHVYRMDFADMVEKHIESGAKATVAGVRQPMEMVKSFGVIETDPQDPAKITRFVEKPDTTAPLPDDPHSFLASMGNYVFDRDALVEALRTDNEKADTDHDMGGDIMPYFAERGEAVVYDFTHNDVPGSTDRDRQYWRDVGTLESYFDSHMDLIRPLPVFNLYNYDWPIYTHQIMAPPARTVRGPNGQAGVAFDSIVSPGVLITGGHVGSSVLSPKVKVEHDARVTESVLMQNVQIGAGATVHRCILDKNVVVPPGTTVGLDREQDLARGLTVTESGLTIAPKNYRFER
Nature of the experiment: activation curve, malachite green Pi release coupled to pyrophosphatase. Particulars: allosteric activator (Vmax 4-fold); Glc-1P and ATP as substrates, Mg2+, pH 8.0, 37°C; read-out: A0.5.

The target of experiment [4] is T4, R. albus ADP-Glc PPase GlgC (Hominimerdicola alba, UniProt E9SED8).
T4 construct: recombinant in E. coli, IMAC purified; homotetramer
T4 sequence (E9SED8 1-400): T1 sequence (E9SED8 1-400)
Briefly: activation of ADP-Glc synthesis, malachite green Pi release. Particulars: allosteric activator; Glc-1P and ATP as substrates, Mg2+, pH 8.0, 37°C.

Experiment [5] has as its target T5, S. coelicolor ADP-Glc PPase (Streptomyces coelicolor, UniProt P72394).
T5 construct: gene glgC; recombinant in E. coli BL21 (DE3), His-tagged, IMAC purified; actinobacterial enzyme is a GlgC tetramer
T5 sequence (P72394 1-399): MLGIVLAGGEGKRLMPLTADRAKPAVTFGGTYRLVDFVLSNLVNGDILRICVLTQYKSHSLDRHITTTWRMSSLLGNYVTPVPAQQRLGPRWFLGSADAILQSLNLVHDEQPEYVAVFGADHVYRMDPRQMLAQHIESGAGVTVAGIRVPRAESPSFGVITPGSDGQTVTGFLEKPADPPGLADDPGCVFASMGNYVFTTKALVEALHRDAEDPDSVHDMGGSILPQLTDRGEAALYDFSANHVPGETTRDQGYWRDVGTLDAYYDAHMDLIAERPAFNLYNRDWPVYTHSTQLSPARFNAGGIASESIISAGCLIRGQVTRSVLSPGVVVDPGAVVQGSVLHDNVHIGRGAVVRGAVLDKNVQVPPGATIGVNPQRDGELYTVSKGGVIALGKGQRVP
Briefly: activation curve, malachite green Pi release coupled to pyrophosphatase. Particulars: allosteric activator (4-fold); Glc-1P and ATP as substrates, Mg2+, pH 8.0, 37°C; read-out: A0.5.

Experiment [6] deals with T6, R. fascians ADP-Glc PPase (Rhodococcoides fascians, UniProt A0A143QED7).
T6 construct: gene glgC; recombinant in E. coli BL21 (DE3), His-tagged, IMAC purified; actinobacterial enzyme is a GlgC tetramer
T6 sequence (A0A143QED7 1-404): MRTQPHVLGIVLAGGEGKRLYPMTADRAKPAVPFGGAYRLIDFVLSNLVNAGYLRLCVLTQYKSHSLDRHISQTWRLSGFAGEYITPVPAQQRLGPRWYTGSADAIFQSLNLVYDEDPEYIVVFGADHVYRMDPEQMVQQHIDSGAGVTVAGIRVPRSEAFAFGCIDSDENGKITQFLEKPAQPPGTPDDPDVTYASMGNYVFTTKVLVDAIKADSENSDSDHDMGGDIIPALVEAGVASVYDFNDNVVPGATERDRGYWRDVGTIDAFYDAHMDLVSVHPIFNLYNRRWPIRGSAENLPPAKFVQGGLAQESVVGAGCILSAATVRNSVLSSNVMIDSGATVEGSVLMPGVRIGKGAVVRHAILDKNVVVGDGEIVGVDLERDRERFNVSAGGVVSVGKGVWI
Nature of the experiment: activation of ADP-Glc synthesis, malachite green Pi release. Particulars: allosteric activator; Glc-1P and ATP as substrates, Mg2+, pH 8.0, 37°C.

In experiment [7] the target is T2, A. tumefaciens ADP-Glc PPase. Briefly: saturation curve, malachite green Pi release coupled to pyrophosphatase. To be noted: ATP co-substrate, Mg2+, pH 8.0, 37°C.

For the compound `N[C@H]1C(O)O[C@H](COP(=O)(O)O)[C@@H](O)[C@@H]1O` (some centres unmarked) [GlcN-6P], the “activation of ADP-Glc synthesis, malachite green Pi release” value in experiment [1] was “both R. albus GlgC and GlgC/GlgD responded to GlcN-6P activation”; in experiment [4] it was “both R. albus GlgC and GlgC/GlgD responded to GlcN-6P activation”. Moreover, the “% decrease of activity” value in experiment [2] was ~ 30%. Also, the EC50 in experiment [3] turned out to be 80 µM; in experiment [5] it was 3550 ± 520 µM. Further, the fold activation in experiment [6] is on record as ~ 8 fold.
Consider `O=P(O)(O)OC[C@H]1OC(O)[C@H](O)[C@@H](O)[C@@H]1O` (some centres unmarked) [Glc-6P], for which, in experiment [6], the fold activation is given as ~ 8 fold.
Take `N[C@H]1[C@@H](OP(=O)(O)O)O[C@H](CO)[C@@H](O)[C@@H]1O` [GlcN-1P]: in experiment [7], the Km result is given as “The enzyme was active with GlcN-1P as a substrate”.
